Reference: patent US7144866B2, “Avermectin derivatives” (The Kitasato Institute, priority 2000, dated 2006)

How the values were obtained:
[1] = tested on: Caenorhabditis elegans; test: Antiparasitic activity against Caenorhabditis elegans in a 96 well microplate, movement graded 0 to 3, MIC; assay type: cell-based; conditions: concentration required to give Indication 2 (or 3) for caenorhabditis elegans; incubated at 20° C., observed after 24 and 48 hours
Source text: (§1) Methods for determining antiparasitic effects of the compounds disclosed by the present invention are explained below.
(§2) As model insects for simple determination of antiparasitic and insecticidal activities, those insects are desired which can be easily obtained and bred in laboratories, and have no pathogenicity to a human. Caenorhabditis elegans, an unparasitic eelworm widely used in experiments of genetics, was used as a typical steam worm, and artemia salina used as feed for tropical fish and named Brine shrimp, was used instead of insects. […]
(§3) Each well of a 96 well microplate was filled with the solution of the test compound (methanol as a solvent), and the solvent was removed using a vacuum pump, then 250 μl of the assay medium was added to each wells (the assay medium was prepared by dissolving 7.5 mM sodium hydrogencarbonate, 7.5 mM potassium chloride, 7.5 mM calcium chloride dihydrate and 7.5 mM magnesium sulfate heptahydrate in distilled water and adding 0.01% of lecithin to the solution), and then the microplate was shaken using a microplate mixer for 15 minutes. […] The results were compared to those obtained without addition of the test compound, and evaluated by 4 grades. […]

[2] = tested on: artemia salina; test: Insecticidal model activity against artemia salina (Brine shrimp) larvae in a 96 well microplate, movement graded 0 to 3, MIC; assay type: cell-based; conditions: concentration required to give Indication 2 (or 3) for artemia salina; incubated at 20° C., observed after 24 and 48 hours
Source text: as §1, §2, §3

SMILES: CCC(C)C1O[C@]2(C=C[C@@H]1C)C[C@@H]1CC(C/C=C(\C)[C@@H](OC3C[C@H](OC)[C@@H](OC4C[C@H](OC)[C@@H](O)[C@H](C)O4)[C@H](C)O3)[C@@H](C)/C=C/C=C3\COC4[C@H](O)C(C)=CC(C(=O)O1)[C@]34O)O2 (some centres unmarked) [B1a*, avermectin B1a]
- C.E. minimum inhibitory concentration (MIC) [1]: 2 ng/mL
- A.S. minimum inhibitory concentration (MIC) [2]: 0.5 ng/mL
